Source: US9597407B2, “Targeted antimicrobial moieties” (C3 Jian, Inc., priority 2009, dated 2017)
“Also recorded” adds a separate entry of the source.

Experiments:
microorganisms [1] = experiment: Morphology, biofilm and growth disruption by peptides (Table 5); type: cell-based; design: key: A: Peptide aggregates; B: Less hyphal formation; Clumps; Diffuse clumps and small polyps; F: Diffuse growth; H: Thin; I: Growth inhibition; Microcolony formation; Rippled; Small polyps; Thick; W: Halo formation on top, microlonies on bottom
Excerpt: In certain embodiments peptides that induce alterations in phenotype or other biological activities can also be used as antimicrobial effector moieties.

bacteria = experiment: Binding of targeting peptides to microorganisms (Table 3); settings: preferably 1x PBS; for Target(s) (microorganism bound by the targeting peptide) / Target(s) (microorganisms bound by the targeting peptide): peptide binding in aqueous buffers that varied depending on peptide solubility
microorganisms [2] = experiment: Peptide activities: binding, antimicrobial, growth or phenotype altering (Table 8)
Excerpt: In certain embodiments, peptides described herein can have multiple activities. Thus for example, a peptide can have both binding/targeting activity and antimicrobial activity. Such peptides can be used, e.g., in a chimeric construct, for any or all of these properties. Thus, for example, a peptide designated “B” in Table 8 can be used as a targeting peptide. If it is also designated G or M it can also be used for antimicrobial activity.

[3] = microorganism bound by the targeting peptide, binding in aqueous buffers chosen by peptide solubility
[4] = microorganism the targeting peptide binds, binding in aqueous buffers that varied with peptide solubility

For “PF-621 (chain 1 PPSSFLV; chain 2 PPSSFLV; Peptide with targeting and/or antimicrobial activity)”, the “Organism, effect (morphology, biofilm and growth disruption)” value (microorganisms [1]; E. faecalis) was “E. faecalis (H)”, the “Organism, effect (morphology, biofilm and growth disruption)” value (microorganisms [1]; S. pneumoniae) was “S. pneumoniae (I)” and the “Target(s) (microorganism bound by the targeting peptide)” value (bacteria) was “S. epidermidis; also recorded: C. albicans”. The Activities (microorganisms [2]) was “G B”.

For “PF-760 (chain 1 DHITLDDYEIHDGFNFELYYG; chain 2 DHITLDDYEIHDGFNFELYYG; Peptide with targeting and/or antimicrobial activity)”, the “Organism, effect (morphology, biofilm and growth disruption)” value (microorganisms [1]; MRSA) was “MRSA (M)”, the “Organism, effect (morphology, biofilm and growth disruption)” value (microorganisms [1]; S. epidermidis) was “S. epidermidis (M)” and the “Organism, effect (morphology, biofilm and growth disruption)” value (microorganisms [1]; S. pneumoniae) was “S. pneumoniae (C)”. The “Target(s) (microorganism bound by the targeting peptide)” value (bacteria) was “S. epidermidis; also recorded: M. luteus” and the Activities (microorganisms [2]) was “G B”.

With “PF-453 (IIQDIAHAFGY; Peptide with targeting and/or antimicrobial activity)” the “Organism, effect (morphology, biofilm and growth disruption)” value (microorganisms [1]; E. coli) was “E. coli (C)”, the “Organism, effect (morphology, biofilm and growth disruption)” value (microorganisms [1]; MRSA) was “MRSA (C)” and the “Organism, effect (morphology, biofilm and growth disruption)” value (microorganisms [1]; S. epidermidis) was “S. epidermidis (C)”. The “Organism, effect (morphology, biofilm and growth disruption)” value (microorganisms [1]; S. pneumoniae) was “S. pneumoniae (C)”, the “Target(s) (microorganisms bound by the targeting peptide)” value (bacteria) was “M. luteus; also recorded: E. coli; also recorded: P. aeruginosa; also recorded: S. pneumoniae; also recorded: E. faecalis; also recorded: C. jeikeium; also recorded: C. jejuni” and the Activities (microorganisms [2]) was “G B”.

In the case of “PF-566 (EAQQVTQQLGADFNAITTPTATKV; Peptide with targeting and/or antimicrobial activity)”, the “Organism, effect (morphology, biofilm and growth disruption)” value (microorganisms [1]; B. subtilis) is reported as “B. subtilis (C)”, the “Organism, effect (morphology, biofilm and growth disruption)” value (microorganisms [1]; C. jeikeium) is reported as “C. jeikeium (C)” and the “Organism, effect (morphology, biofilm and growth disruption)” value (microorganisms [1]; C. jejuni) is reported as “C. jejuni (D)”. For the same substance, the “Organism, effect (morphology, biofilm and growth disruption)” value (microorganisms [1]; M. luteus) was “M. luteus (D)”, the “Organism, effect (morphology, biofilm and growth disruption)” value (microorganisms [1]; MRSA) was “MRSA (M)” and the “Organism, effect (morphology, biofilm and growth disruption)” value (microorganisms [1]; S. pneumoniae) was “S. pneumoniae (D)”. The “Target(s) (microorganisms bound by the targeting peptide)” value (bacteria) was “P. mirabilis; also recorded: S. pneumoniae” and the Activities (microorganisms [2]) was “G B”.

For “PF-C065 (DEERYSDSYFLKEKVFYLILALFLILFHQKYLYFLEIITI; Peptide with targeting and/or antimicrobial activity)”, the “Organism, effect (morphology, biofilm and growth disruption)” value (microorganisms [1]; F. nucleatum) was “F. nucleatum (T)”, the “Target(s) (microorganism bound by the targeting peptide)” value (bacteria) was “A. naeslundii; also recorded: F. nucleatum; also recorded: P. gingivalis; also recorded: S. mutans” and the Activities (microorganisms [2]) was “G B”.

For “PF-289 (MGRHLWNPSYFVATVSENTEEQIRKYRKNK; Peptide with targeting and/or antimicrobial activity)”, the “Organism, effect” value (microorganisms [1]; B. subtilis) was “B. subtilis (C)”, the “Target(s)” value (bacteria; [3]) was “C. difficile” and the Activities (microorganisms [2]) was “G B”.

In the case of “PF-540 (KSILILIKVIFIGQTTIIL; Peptide with targeting and/or antimicrobial activity)”, the “Organism, effect (morphology, biofilm and growth disruption)” value (microorganisms [1]; E. coli) is reported as “E. coli (R)”, the “Organism, effect (morphology, biofilm and growth disruption)” value (microorganisms [1]; MRSA) is reported as “MRSA (H)” and the “Organism, effect (morphology, biofilm and growth disruption)” value (microorganisms [1]; S. epidermidis) is reported as “S. epidermidis (H)”. The “Organism, effect (morphology, biofilm and growth disruption)” value (microorganisms [1]; S. pneumoniae) was “S. pneumoniae (R)”, the “Target(s) (microorganisms bound by the targeting peptide)” value (bacteria) was “C. albicans” and the Activities (microorganisms [2]) was “G B”.

“PF-027 (HNARKYLEFISQKIDGDKLTKEDSL; Peptide with targeting and/or antimicrobial activity)” was tested, and the “Organism, effect” value (microorganisms [1]; MRSA) was “MRSA (M)”, the “Organism, effect” value (microorganisms [1]; S. epidermidis) was “S. epidermidis (D)” and the “Target(s)” value (bacteria; [4]) was “M. luteus and MRSA and E. faecalis and C. jejuni”. For the same substance, the Activities (microorganisms [2]) was “G B”.

In the case of “PF-623 (chain 1 VLFAVYLGALDWLFSWLTQKM; chain 2 VLFAVYLGALDWLFSWLTQKM; Peptide with targeting and/or antimicrobial activity)”, the “Organism, effect (morphology, biofilm and growth disruption)” value (microorganisms [1]; C. jeikeium) is reported as “C. jeikeium (R)”, the “Organism, effect (morphology, biofilm and growth disruption)” value (microorganisms [1]; E. faecalis) is reported as “E. faecalis (D)” and the “Organism, effect (morphology, biofilm and growth disruption)” value (microorganisms [1]; MRSA) is reported as “MRSA (D)”. For the same substance, the “Organism, effect (morphology, biofilm and growth disruption)” value (microorganisms [1]; S. epidermidis) was “S. epidermidis (M)”, the “Organism, effect (morphology, biofilm and growth disruption)” value (microorganisms [1]; S. pneumoniae) was “S. pneumoniae (D)” and the “Target(s) (microorganism bound by the targeting peptide)” value (bacteria) was “S. epidermidis and P. aeruginosa and MRSA and S. pneumoniae and E. faecalis and C. jeikeium”. The Activities (microorganisms [2]) was “G B”.

With “PF-390 (VVAYVITQVGAIRF; Peptide with targeting and/or antimicrobial activity)” the “Organism, effect” value (microorganisms [1]; C. jejuni) was “C. jejuni (D)”, the “Organism, effect” value (microorganisms [1]; E. coli) was “E. coli (C)” and the “Organism, effect” value (microorganisms [1]; E. faecalis) was “E. faecalis (D)”. For the same substance, the “Organism, effect” value (microorganisms [1]; MRSA) was “MRSA (D)”, the “Organism, effect” value (microorganisms [1]; S. epidermidis) was “S. epidermidis (D)” and the “Organism, effect” value (microorganisms [1]; S. pneumoniae) was “S. pneumoniae (D)”. The “Target(s) (microorganisms bound by the targeting peptide)” value (bacteria) was “S. epidermidis and P. aeruginosa and C. albicans and MRSA” and the Activities (microorganisms [2]) was “G B”.

In the case of “PF-456 (TCVKPRTIN; Peptide with targeting and/or antimicrobial activity)”, the “Organism, effect (morphology, biofilm and growth disruption)” value (microorganisms [1]; C. jejuni) is reported as “C. jejuni (A)”, the “Organism, effect (morphology, biofilm and growth disruption)” value (microorganisms [1]; E. faecalis) is reported as “E. faecalis (A)” and the “Target(s) (microorganisms bound by the targeting peptide)” value (bacteria) is reported as “C. albicans and MRSA and E. faecalis and C. jeikeium and C. jejuni”. The Activities (microorganisms [2]) was “G B”.

With “PF-447 (IDKSRNKDQFSHIFGLYNICSG; Peptide with targeting and/or antimicrobial activity)” the “Organism, effect (morphology, biofilm and growth disruption)” value (microorganisms [1]; E. faecalis) was “E. faecalis (C)”, the “Organism, effect (morphology, biofilm and growth disruption)” value (microorganisms [1]; MRSA) was “MRSA (C)” and the “Organism, effect (morphology, biofilm and growth disruption)” value (microorganisms [1]; S. epidermidis) was “S. epidermidis (C)”. The “Organism, effect (morphology, biofilm and growth disruption)” value (microorganisms [1]; S. pneumoniae) was “S. pneumoniae (C)”, the “Target(s) (microorganisms bound by the targeting peptide)” value (bacteria) was “S. epidermidis; also recorded: M. luteus; also recorded: E. coli; also recorded: S. pneumoniae” and the Activities (microorganisms [2]) was “G B”.

“PF-035 (SFYESY; Peptide with targeting and/or antimicrobial activity)” was tested, and the “Organism, effect” value (microorganisms [1]; MRSA) was “MRSA (M)”, the “Target(s)” value (bacteria; [4]) was “S. epidermidis and M. luteus and E. coli and C. albicans and MRSA and C. jeikeium and C. jejuni” and the Activities (microorganisms [2]) was “G B”.

“PF-625 (chain 1 SDSTNNARTRKKARDVTTKDIDK; chain 2 SDSTNNARTRKKARDVTTKDIDK; Peptide with targeting and/or antimicrobial activity)” was tested, and the “Organism, effect (morphology, biofilm and growth disruption)” value (microorganisms [1]; S. pneumoniae) was “S. pneumoniae (H)”, the “Target(s) (microorganism bound by the targeting peptide)” value (bacteria) was “S. epidermidis; also recorded: M. luteus; also recorded: S. pneumoniae; also recorded: C. jeikeium” and the Activities (microorganisms [2]) was “G B”.

“PF-383 (WSEIEINTKQSN; Peptide with targeting and/or antimicrobial activity)” was tested, and the “Organism, effect” value (microorganisms [1]; E. coli) was “E. coli (R)”, the “Organism, effect” value (microorganisms [1]; S. epidermidis) was “S. epidermidis (C)” and the “Target(s)” value (bacteria; [3]) was “S. epidermidis; also recorded: B. subtilis; also recorded: B. fragilis; also recorded: E. coli; also recorded: C. jejuni”. The Activities (microorganisms [2]) was “G B”.

“PF-550 (STENGWQEFESYADVGVDPRRYVPL; Peptide with targeting and/or antimicrobial activity)” was tested, and the “Organism, effect (morphology, biofilm and growth disruption)” value (microorganisms [1]; B. subtilis) was “B. subtilis (D)”, the “Target(s) (microorganisms bound by the targeting peptide)” value (bacteria) was “S. pneumoniae” and the Activities (microorganisms [2]) was “G B”.

In the case of “PF-573 (EKKLIVKLIDSIGKSHEEIVGAG; Peptide with targeting and/or antimicrobial activity)”, the “Organism, effect (morphology, biofilm and growth disruption)” value (microorganisms [1]; S. pneumoniae) is reported as “S. pneumoniae (C)”, the “Target(s) (microorganisms bound by the targeting peptide)” value (bacteria) is reported as “S. epidermidis; also recorded: S. pneumoniae” and the Activities (microorganisms [2]) is reported as “G B”.

“PF-381 (QGANPCQQVGFTVNDPDCRLAKTV; Peptide with targeting and/or antimicrobial activity)” was tested, and the “Organism, effect” value (microorganisms [1]; E. coli) was “E. coli (R)”, the “Organism, effect” value (microorganisms [1]; E. faecalis) was “E. faecalis (C)” and the “Organism, effect” value (microorganisms [1]; MRSA) was “MRSA (C)”. The “Organism, effect” value (microorganisms [1]; S. epidermidis) was “S. epidermidis (C)”, the “Target(s)” value (bacteria; [3]) was “E. coli; also recorded: P. aeruginosa; also recorded: C. jejuni” and the Activities (microorganisms [2]) was “G B”.
